For 18 molecules, T/C results are on record in PubChem BioAssay AID328 (DTP/NCI, 2004).

The test system of this experiment is BDF1 mice, P388 leukemia ip, median survival T/C. The experiment in a line: NCI In Vivo Anticancer Drug Screen. Data for tumor model P388 Leukemia (intraperitoneal) in B6D2F1 (BDF1) mice. Conditions: endpoint: median survival time, higher = longer survival. A digest of the protocol:
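Survival ratio, drug arm over vehicle arm, in mice with a transplanted tumour.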

[1] abbreviates: dose: 100.0 mg/kg/injection, schedule: Q01DX009 (ip), vehicle: saline with Tween-80.
[2] abbreviates: dose: 25.0 mg/kg/injection, schedule: Q01DX009 (ip), vehicle: saline with Tween-80.
Where [3] appears, read: dose: 50.0 mg/kg/injection, schedule: Q01DX009 (ip), vehicle: saline with Tween-80.
The mark [4] stands for this setting: dose: 5.0 mg/kg/injection, schedule: Q01DX009 (ip), vehicle: water.
[5] abbreviates: dose: 20.0 mg/kg/injection, schedule: Q01DX009 (ip), vehicle: water.
The mark [6] stands for this setting: dose: 40.0 mg/kg/injection, schedule: Q01DX009 (ip), vehicle: water.
[7] abbreviates: dose: 25.0 mg/kg/injection, schedule: Q01DX009 (ip), vehicle: water.
Setting [8] is: dose: 50.0 mg/kg/injection, schedule: Q04DX003 (ip), vehicle: water.
Setting [9] is: dose: 100.0 mg/kg/injection, schedule: Q04DX003 (ip), vehicle: water.

Values joined by “and” are separate entries in the source; they are usually repeats but may differ in a detail not shown here. Equal values may be shown once. Toxic doses and inconclusive results are not listed.

As to `c1nc(SC2CCCC2)c2[nH]cnc2n1`, the T/C was 100 % of control under setting [1] and 116 % of control (dose: 200.0 mg/kg/injection, schedule: Q01DX009 (ip), vehicle: saline with Tween-80).
In the case of `O=C1SC2(CCCCC2)SC1=O`, the T/C was 95 % of control under setting [2], 95 % of control under setting [3] and 104 % of control under setting [1].
`c1ccc(NNC(c2ccccc2)(c2ccccc2)c2ccccc2)cc1`: the T/C was 90 % of control (dose: 100.0 mg/kg/injection, schedule: Q01DX009 (ip), vehicle: Klucel (hydroxypropylcellulose) (HPC)); 104 % of control (dose: 100.0 mg/kg/injection, schedule: Q04DX003 (ip), vehicle: Klucel (hydroxypropylcellulose) (HPC)); 100 % of control (dose: 200.0 mg/kg/injection, schedule: Q01DX009 (ip), vehicle: Klucel (hydroxypropylcellulose) (HPC)); 91 % of control (dose: 200.0 mg/kg/injection, schedule: Q04DX003 (ip), vehicle: Klucel (hydroxypropylcellulose) (HPC)); 90 % of control (dose: 400.0 mg/kg/injection, schedule: Q01DX009 (ip), vehicle: Klucel (hydroxypropylcellulose) (HPC)); 95 % of control (dose: 400.0 mg/kg/injection, schedule: Q04DX003 (ip), vehicle: Klucel (hydroxypropylcellulose) (HPC)).
On to `O=C(NNc1ccc(F)cc1)C12CC3CC(CC(C3)C1)C2`, for which the T/C under setting [3] is 104 % of control.
Turning to `CC(=O)Nc1ccc2ccc(Cl)nc2n1`, the T/C is, setting by setting: (dose: 100.0 mg/kg/injection, schedule: Q04DX003 (ip), vehicle: saline) 95 % of control; (dose: 200.0 mg/kg/injection, schedule: Q04DX003 (ip), vehicle: saline) 100 % of control; (dose: 400.0 mg/kg/injection, schedule: Q04DX003 (ip), vehicle: saline) 104 % of control.
As for `CC1(C)CC2(C)OC2C2(C1)N=NC(=Nc1ccccc1)O2` (centres undefined), the T/C under setting [3] is 117 % of control.
In the case of `O=c1[nH]nc(CF)c(=O)[nH]1`, the T/C is, setting by setting: (dose: 3.0 mg/kg/injection, schedule: Q01DX009 (ip), vehicle: saline) 100 % of control and 109 % of control; (dose: 6.0 mg/kg/injection, schedule: Q01DX009 (ip), vehicle: saline) 118 % of control; (dose: 12.0 mg/kg/injection, schedule: Q01DX009 (ip), vehicle: saline) 150 % of control; (dose: 24.0 mg/kg/injection, schedule: Q01DX009 (ip), vehicle: saline) 154 % of control and 172 % of control.
For `Cc1c2c(ccc3ccccc32)c[n+]2ccccc12`, the T/C was 105 % of control (dose: 6.25 mg/kg/injection, schedule: Q01DX009 (ip), vehicle: saline); 122 % of control (dose: 12.5 mg/kg/injection, schedule: Q01DX009 (ip), vehicle: saline); 118 % of control (dose: 12.5 mg/kg/injection, schedule: Q04DX003 (ip), vehicle: saline); 122 % of control (dose: 25.0 mg/kg/injection, schedule: Q04DX003 (ip), vehicle: saline).
For the molecule `O=C1OCC2SC(c3ccccc3)NC12` (centres undefined), the T/C was 95 % of control (dose: 100.0 mg/kg/injection, schedule: Q01DX001 (ip), vehicle: saline sonified); 113 % of control (dose: 200.0 mg/kg/injection, schedule: Q01DX001 (ip), vehicle: saline sonified); 95 % of control (dose: 400.0 mg/kg/injection, schedule: Q01DX001 (ip), vehicle: saline sonified).
On to `COc1cccc2c1C(=O)c1c(O)c3c(c(O)c1C2=O)C[C@@](O)(C(C)O)C[C@@H]3OC1CC(N(Cc2ccccc2)Cc2ccccc2)C(O)C(C)O1` (some centres undefined), for which the T/C reads like this: (dose: 2.5 mg/kg/injection, schedule: Q01DX009 (ip), vehicle: water) 108 % of control; under setting [4], 112 % of control; under setting [5], 166 % of control; under setting [6], 229 % of control.
Turning to `C#CC1(O)CCC2C3CCc4cc(OC)ccc4C3CCC21C` (centres undefined), the T/C was 100 % of control (dose: 40.0 mg/kg/injection, schedule: Q01DX009 (sc), vehicle: saline with Tween-80); 100 % of control (dose: 80.0 mg/kg/injection, schedule: Q01DX009 (sc), vehicle: saline with Tween-80); 88 % of control (dose: 100.0 mg/kg/injection, schedule: Q04DX003 (sc), vehicle: saline with Tween-80); 100 % of control (dose: 160.0 mg/kg/injection, schedule: Q01DX009 (sc), vehicle: saline with Tween-80); 94 % of control (dose: 200.0 mg/kg/injection, schedule: Q04DX003 (sc), vehicle: saline with Tween-80); 88 % of control (dose: 400.0 mg/kg/injection, schedule: Q04DX003 (sc), vehicle: saline with Tween-80).
`NC(=O)c1nc(C(F)(F)F)[nH]c1C(N)=O`: the T/C under setting [7] was 107 % of control; the T/C (dose: 50.0 mg/kg/injection, schedule: Q01DX009 (ip), vehicle: water) is 105 % of control and 107 % of control; the T/C under setting [8] was 102 % of control; the T/C (dose: 100.0 mg/kg/injection, schedule: Q01DX009 (ip), vehicle: water) was 108 % of control and 118 % of control; the T/C under setting [9] was 102 % of control; the T/C (dose: 200.0 mg/kg/injection, schedule: Q01DX009 (ip), vehicle: water) is 107 % of control and 118 % of control. Also, the T/C is, setting by setting: (dose: 200.0 mg/kg/injection, schedule: Q04DX003 (ip), vehicle: water) 109 % of control; (dose: 300.0 mg/kg/injection, schedule: Q01DX009 (ip), vehicle: water) 96 % of control; (dose: 400.0 mg/kg/injection, schedule: Q01DX009 (ip), vehicle: water) 118 % of control; (dose: 400.0 mg/kg/injection, schedule: Q04DX003 (ip), vehicle: water) 102 % of control.
For `CC1(C(=O)N2CC2)OC1c1ccccc1` (centres undefined), the T/C (dose: 25.0 mg/kg/injection, schedule: Q04DX002 (ip), vehicle: saline with Tween-80) is 91 % of control; the T/C (dose: 50.0 mg/kg/injection, schedule: Q04DX002 (ip), vehicle: saline with Tween-80) is 98 % of control; the T/C (dose: 100.0 mg/kg/injection, schedule: Q04DX002 (ip), vehicle: saline with Tween-80) is 96 % of control and 100 % of control.
Regarding `CC1(C2CC2)NC(=O)NC1=O` (centres undefined), the T/C runs as follows: (dose: 75.0 mg/kg/injection, schedule: Q01DX009 (ip), vehicle: saline) 113 % of control; (dose: 100.0 mg/kg/injection, schedule: Q01DX001 (ip), vehicle: saline) 113 % of control; (dose: 150.0 mg/kg/injection, schedule: Q01DX009 (ip), vehicle: saline) 104 % of control; (dose: 200.0 mg/kg/injection, schedule: Q01DX001 (ip), vehicle: saline) 104 % of control; (dose: 300.0 mg/kg/injection, schedule: Q01DX009 (ip), vehicle: saline) 100 % of control; (dose: 400.0 mg/kg/injection, schedule: Q01DX001 (ip), vehicle: saline) 104 % of control.
In the case of `CN(CCS)C(=N)N`, the T/C was 112 % of control (dose: 3.13 mg/kg/injection, schedule: Q01DX009 (ip), vehicle: saline with Tween-80); 99 % of control (dose: 6.25 mg/kg/injection, schedule: Q01DX009 (ip), vehicle: saline with Tween-80); 111 % of control (dose: 12.5 mg/kg/injection, schedule: Q01DX009 (ip), vehicle: saline with Tween-80); 104 % of control under setting [2].
In the case of `CC1(c2ccc(Cl)cc2)NC(=O)NC1=O` (centres undefined), the T/C by setting is: (dose: 200.0 mg/kg/injection, schedule: Q04DX003 (ip), vehicle: saline sonified) 91 % of control; (dose: 400.0 mg/kg/injection, schedule: Q04DX003 (ip), vehicle: saline sonified) 87 % of control.
As for `c1ccc2c(c1)ccc1c[n+]3ccccc3cc12`, the T/C is, setting by setting: (dose: 0.25 mg/kg/injection, schedule: Q01DX009 (ip), vehicle: saline) 90 % of control; (dose: 0.5 mg/kg/injection, schedule: Q01DX009 (ip), vehicle: saline) 90 % of control; (dose: 1.0 mg/kg/injection, schedule: Q01DX009 (ip), vehicle: saline) 90 % of control; (dose: 2.0 mg/kg/injection, schedule: Q01DX009 (ip), vehicle: saline) 90 % of control.
As for `NCCCn1c2ccccc2c2cnccc21`, the T/C was 105 % of control under setting [4]; 94 % of control (dose: 10.0 mg/kg/injection, schedule: Q01DX009 (ip), vehicle: water); 119 % of control under setting [5]; 91 % of control under setting [7]; 103 % of control (dose: 25.0 mg/kg/injection, schedule: Q04DX003 (ip), vehicle: water); 119 % of control under setting [6]. The T/C by setting is: under setting [8], 107 % of control; under setting [9], 99 % of control.
